Target: T1, Cytochrome P450 11B1, mitochondrial (Homo sapiens, UniProt P15538)
T1 sequence (P15538 whole entry): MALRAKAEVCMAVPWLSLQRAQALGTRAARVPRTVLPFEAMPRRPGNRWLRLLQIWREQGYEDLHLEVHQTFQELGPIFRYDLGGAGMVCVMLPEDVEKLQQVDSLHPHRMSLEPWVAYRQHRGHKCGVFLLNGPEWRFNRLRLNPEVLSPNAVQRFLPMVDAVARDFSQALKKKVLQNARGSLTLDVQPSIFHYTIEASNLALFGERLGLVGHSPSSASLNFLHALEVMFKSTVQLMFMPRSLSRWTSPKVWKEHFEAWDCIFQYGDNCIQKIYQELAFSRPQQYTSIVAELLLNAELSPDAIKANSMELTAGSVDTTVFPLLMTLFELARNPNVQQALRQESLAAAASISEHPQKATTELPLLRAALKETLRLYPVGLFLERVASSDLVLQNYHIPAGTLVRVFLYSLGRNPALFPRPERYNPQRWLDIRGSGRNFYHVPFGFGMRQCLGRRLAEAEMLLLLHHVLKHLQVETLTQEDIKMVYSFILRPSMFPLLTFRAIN
Assay: CYP11B assay
Experimental: The enzyme activity was assayed by monitoring the conversion of deoxycorticosterone to corticosterone in the presence of inhibitor compounds. The product formation was monitored by HPTLC using a phosphoimager system.

| SMILES | IC50 [nM] |
| --- | --- |
| C/C(=C1/CCc2cc(F)ccc21)c1cccnc1 [3-{1-[(1E)-5-fluoro-2,3-dihydro-1H-inden-1-ylidene]ethyl}pyridine] | 159 |
| C(=C1/CCCc2ccccc21)/c1ccncc1 [4-[(E)-3,4-Dihydronaphthalen-1(2H)-ylidenemethyl]pyridine] | 282 |
| Brc1ccc2c(c1)CC/C2=C/c1ccncc1 [4-{[(1Z)-5-bromo-2,3-dihydro-1H-inden-1-ylidene]methyl}pyridine] | 877 |
| Clc1ccc2c(c1)CC/C2=C/c1ccncc1 [4-{[(1Z)-5-chloro-2,3-dihydro-1H-inden-1-ylidene]methyl}pyridine] | 1120 |

Reference: BindingDB's records for doi:10.1021/jm0492397 (Saarland University, 2005)
